Assay results as given in patent US7659306B2, “Method of increasing gastric emptying” (The Board of Regents of the University of Texas System, priority 2004, dated 2010).
“Also recorded” adds a separate entry of the source. Like-named read-outs stand apart in the source and are kept apart here.

Tests used:
[1] = biological target: T1, dopamine 3 receptor (D3R) (Rattus norvegicus, UniProt P19020); conditions: adult male Sprague-Dawley rats, dopamine 1 mg/kg i.p. plus nafadotride 0.1 or 1 mg/kg i.p., 20 minutes after meal
Method: Gastric emptying was assessed in adult male Sprague-Dawley rats by the phenol red method. […] Control rats received vehicle (PBS).
A solution of 50 mg phenol red in 100 ml aqueous methylcellulose (1.5%) was used as a test meal. Methylcellulose (1.5 g, 400 centipoises) was dispersed in 100 ml of hot water (80° C.) under continuous shaking. The solution was allowed to cool to 35° C., and then phenol red was added. Intensity and duration (5 hr) of agitation were kept constant to obtain solutions of reproducible viscosity.
Conscious rats were fed the 0.05% phenol red methylcellulose solution and euthanized after 20 minutes. The stomach was clamped at the pylorus and cardiac ends before removal. The stomach and its contents were homogenized with 100 ml of 0.1N NaOH. A baseline control for each phenol red solution preparation was used by mixing 1.5 ml with 100 ml of 0.1N NaOH. The mixture was then kept for 1 hr at room temperature: 5 ml of the supernatant was added to 0.5 ml of trichloroacetic acid solution (20% w/v) to precipitate the proteins. […] The solutions were then read with a spectrophotometer at a wavelength of 560 nm.
Gastric emptying (G.E.) for each rat was calculated according to the following formula: (1−Absorbance of test sample)/(Absorbance of baseline control)×100%. Values were expressed as mean±SEM. […]

[2] = biological target: T1, dopamine 3 receptor (D3R); assay: Gastric emptying test (phenol red method) after i.p. D3R agonist; format: in vivo; set-up: from tissue; host or cells: whole animal, adult male Sprague-Dawley rat (gastrointestinal tract); conditions: adult male Sprague-Dawley rats, 1 mg/kg i.p., 20 minutes after phenol red methylcellulose meal, mean±SEM, vehicle 78±4.86%, hydrochloride
Method: Values were expressed as mean±SEM.
Adult male Sprague-Dawley rats (weighing 200-250 g) were deprived of food 18 hr prior to experiments but allowed free access to water. The animals were intraperitoneally injected with a dopamine 3 receptor agonist, PD 128907 hydrochloride, at 1 mg/kg or with physiological saline (control) before administration by oral tube of 1.5 ml of pre-warmed (35° C.) 0.05% phenol red solution.

[3] = biological target: T1, dopamine 3 receptor (D3R); assay: Electric field stimulation induced relaxation of pyloric strips in an organ bath; set-up: from tissue; host or cells: whole animal, adult male Sprague-Dawley rat (gastrointestinal tract); conditions: pyloric strips of adult male Sprague-Dawley rats, agonist 0.1-10 µM, dose dependent, hydrochloride
Method: The pyloric function was assessed by measuring the relaxation of pyloric strips in an organ bath in response to electric field stimulation in the presence of D3R agonist ranging from 0.1-10 µM (1 µM vs control, P<0.05; 10 μM vs control, P=0.001).
Pyloric function was assessed in an organ bath by measuring the relaxation of pyloric strips of adult male Sprague-Dawley rats in the presence of the dopamine 3 receptor agonist, PD 128907 hydrochloride.

T1 sequence (P19020 whole entry): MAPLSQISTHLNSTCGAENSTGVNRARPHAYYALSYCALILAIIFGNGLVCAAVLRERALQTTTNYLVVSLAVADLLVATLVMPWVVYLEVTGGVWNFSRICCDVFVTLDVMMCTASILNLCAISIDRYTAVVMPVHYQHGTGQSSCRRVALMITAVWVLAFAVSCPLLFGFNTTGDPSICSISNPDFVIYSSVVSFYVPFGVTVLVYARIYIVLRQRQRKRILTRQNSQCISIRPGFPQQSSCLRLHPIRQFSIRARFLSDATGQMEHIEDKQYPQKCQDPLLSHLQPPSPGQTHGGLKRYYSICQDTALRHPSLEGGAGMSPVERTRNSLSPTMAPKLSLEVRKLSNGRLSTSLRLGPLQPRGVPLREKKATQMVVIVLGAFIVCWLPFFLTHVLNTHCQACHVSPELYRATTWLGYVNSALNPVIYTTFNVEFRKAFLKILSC

Structure (SMILES) | reversal of the effect of dopamine on gastric emptying [1] | reversal of the effect of dopamine on gastric emptying ([1]; listed as Nafadotride) | gastric emptying [2] [%] | gastric emptying ([2]; listed as D3R agonist) [%] | electric field stimulation induced relaxation of pyloric strips [3]
CCCCN1CCCC1CNC(=O)c1cc(C#N)c2ccccc2c1OC (centres unmarked) [nafadotride] | partial reversal of the effect of dopamine on gastric emptying | partially reverse the effect of dopamine |  |  | 
CCCN1CCO[C@@H]2c3cc(O)ccc3OC[C@H]21.Cl [PD 128907 hydrochloride] |  |  | 44 | 44±8.26 | reduced electric field stimulation induced relaxation of pyloric strips; also recorded: significant reduction in electric field stimulation induced relaxation of pyloric strips
